# Test system: Rattus norvegicus
# Assay: Antihyperglycemic activity against streptozotocin-induced diabetic rat assessed as change in plasma glucose at 1 mM/kg, iv
# Type: functional
structure (smiles),measurement,value
O=C(O)[C@H]1O[C@@H](Oc2cc(O)c3c(=O)cc(-c4ccc(O)c(O)c4)oc3c2)[C@H](O)[C@@H](O)[C@@H]1O,Activity,-25.54%
